Results on 4 compounds are retold here after ChEMBL document CHEMBL1140223, “Novel multifunctional acyloxyalkyl ester prodrugs of 5-aminolevulinic acid display improved anticancer activity independent and dependent on photoactivation” (J Med Chem, 2008).

The structures appear in SMILES notation. Calls of active or inactive are those of the source. The rule behind the calls is not given here.

Assay [1] has as its system U-251. The assay is described as follows: Cytotoxicity against human U251 cells after 72 hrs by Hoechst test. The settings on record: U-251, 72 h. It counts as functional, cell-based.
For assay [2], the system named is U-251. Put plainly: Increase in protoporphyrin 9 levels in human U251 cells at 200 uM after 24 hrs relative to control. It counts as functional.
Assay [3] concerns U-251. Put plainly: Inhibition of 26S proteasome activity in human U251 cells at 100 uM after 24 hrs relative to control. It counts as cell-based.
The subject of assay [4] is U-251. Put plainly: Increase in ROS production in human U251 cells at 50 uM after 4 hrs by FACS flow cytometry in presence of N-acetyl-L-cysteine. It counts as functional, cell-based.
For assay [5], the system named is U-251. The assay is described as follows: Increase in ROS production in human U251 cells at 100 uM after 4 hrs by FACS. It counts as functional, cell-based. On the technique in general: Flow cytometry measures light scatter and fluorescence of single cells or particles in a stream.
Assay [6] deals with U-251. The assay is described as follows: Inhibition of 26S proteasome activity in human U251 cells at 0.5 mM after 24 hrs. It counts as cell-based.
The test system of assay [7] is U-251. Put plainly: Inhibition of 26S proteasome activity in human U251 cells at 100 uM after 48 hrs in presence of N-acetyl-L-cysteine relative to control. It is filed as cell-based. The following applies: values are per cent of control.
In assay [8] the test system is U-251. The assay is described as follows: Increase in heme level in human U251 cells at 100 uM after 48 hrs by Western blot relative to control. It is filed as functional. (In general: In western blotting, separated proteins are transferred to a membrane and probed.)
Assay [9] has as its system U-251. The assay is described as follows: Increase in ROS production in human U251 cells at 100 uM after 4 hrs by FACS in presence of N-acetyl-L-cysteine. It is filed as functional, cell-based.
In assay [10] the test system is U-251. Put plainly: Inhibition of 26S proteasome activity in human U251 cells at 100 uM after 48 hrs relative to control. It counts as cell-based. The following applies: values are per cent of control.
Assay [11] has as its system U-251. The assay is described as follows: Induction of apoptosis in human U251 cells assessed as late apoptotic cells at 100 uM after 48 hrs using annexin-V FITC and PI staining by flow cytometry in presence of Ac-LEHD-CHO. It counts as functional.
In assay [12] the test system is U-251. The assay is described as follows: Induction of necrosis in human U251 cells assessed as necrotic cells at 100 uM after 48 hrs using annexin-V FITC and PI staining by flow cytometry. It counts as functional.
Assay [13] relates to U-251. The assay is described as follows: Cytotoxicity against human U251 cells assessed as ROS production by Hoechst test in presence of N-acetyl-L-cysteine. It counts as functional, cell-based.
The test system of assay [14] is U-251. Put plainly: Induction of apoptosis in human U251 cells assessed as mitochondrial membrane potential dissipation at 100 uM after 24 hrs using JC1 dye by FACS relative to control. It counts as functional.
For assay [15], the system named is U-251. The assay is described as follows: Induction of necrosis in human U251 cells assessed as necrotic cells at 100 uM after 48 hrs using annexin-V FITC and PI staining by flow cytometry in presence of Ac-LEHD-CHO. It is filed as functional.
For another assay, the system named is HL-60. The assay is described as follows: Cytotoxicity against human HL60 cells after 72 hrs by MTT assay. It is filed as functional, cell-based. The settings on record: HL-60, 72 h. (Tetrazolium dyes change colour on reduction, which living cells bring about.)
In assay [16] the test system is U-251. Put plainly: Induction of apoptosis in human U251 cells assessed as increase in cleaved caspase 3 level after 24 hrs by Western blot. It counts as functional, cell-based.
The nature of assay [17]: Cytotoxicity against human MCF7/DX cells after 72 hrs by Hoechst test. It counts as functional, cell-based.
For assay [18], the system named is U-251. Put plainly: Induction of apoptosis in human U251 cells assessed as early apoptotic cells at 100 uM after 48 hrs using annexin-V FITC and PI staining by flow cytometry. It counts as functional.
Assay [19] deals with U-251. Put plainly: Increase in heme level in human U251 cells assessed as porphobilinogen deaminase level at 100 uM after 2 hrs by Western blot in presence of cycloheximide. It is filed as functional, cell-based.
Assay [20] has as its system U-251. The assay is described as follows: Induction of apoptosis in human U251 cells assessed as increase in full length caspase 8 level after 24 hrs by Western blot. It counts as functional, cell-based.
Assay [21] relates to U-251. The assay is described as follows: Induction of apoptosis in human U251 cells assessed as increase in cleaved caspase 9 level after 24 hrs by Western blot. It counts as functional, cell-based.
Assay [22] has as its system U-251. Put plainly: Induction of apoptosis in human U251 cells assessed as viable cells at 100 uM after 48 hrs using annexin-V FITC and PI staining by flow cytometry. It counts as functional. The following applies: U-251, 48 h, read-out: Activity.
Assay [23] has as its system U-251. The assay is described as follows: Increase in heme level in human U251 cells assessed as porphobilinogen deaminase level at 100 uM after 2 hrs by Western blot relative to control. It is filed as functional.
Assay [24] relates to U-251. Put plainly: Induction of apoptosis in human U251 cells assessed as late apoptotic cells at 100 uM after 48 hrs using annexin-V FITC and PI staining by flow cytometry. It counts as functional.
The subject of assay [25] is U-251. Put plainly: Induction of apoptosis in human U251 cells assessed as early apoptotic cells at 100 uM after 48 hrs using annexin-V FITC and PI staining by flow cytometry in presence of Ac-LEHD-CHO. It is filed as functional.
Assay [26] relates to U-251. Put plainly: Induction of apoptosis in human U251 cells assessed as viable cells at 100 uM after 48 hrs using annexin-V FITC and PI staining by flow cytometry in presence of Z-Asp-2,6-dichlorobenzoyloxymethylketone. It is filed as functional. The following applies: U-251, 48 h, read-out: Activity.
Assay [27] deals with U-251. The assay is described as follows: Induction of necrosis in human U251 cells assessed as necrotic cells at 100 uM after 48 hrs using annexin-V FITC and PI staining by flow cytometry in presence of Z-Asp-2,6-dichlorobenzoyloxymethylketone. It counts as functional.
The subject of assay [28] is U-251. The assay is described as follows: Induction of apoptosis in human U251 cells assessed as viable cells at 100 uM after 48 hrs using annexin-V FITC and PI staining by flow cytometry in presence of Ac-LEHD-CHO. It is filed as functional. The settings on record: U-251, 48 h, read-out: Activity.
Assay [29] relates to U-251. Put plainly: Induction of apoptosis in human U251 cells assessed as early apoptotic cells at 100 uM after 48 hrs using annexin-V FITC and PI staining by flow cytometry in presence of Z-Asp-2,6-dichlorobenzoyloxymethylketone. It is filed as functional.
Assay [30] deals with U-251. The assay is described as follows: Induction of apoptosis in human U251 cells assessed as late apoptotic cells at 100 uM after 48 hrs using annexin-V FITC and PI staining by flow cytometry in presence of Z-Asp-2,6-dichlorobenzoyloxymethylketone. It counts as functional.
The subject of a further assay is MCF7. The assay is described as follows: Cytotoxicity against human MCF7 cells after 72 hrs by Hoechst test. The settings on record: MCF7, 72 h. It is filed as functional, cell-based.
For assay [31], the system named is U-251. Put plainly: Induction of histone H4 hyperacetylation in human U251 cells at 100 uM after 4 hrs by Western blot relative to control. It counts as functional.

By IC50 is commonly meant the point on the concentration scale where inhibition reaches its midpoint. A low value points to greater potency. In general, residual activity refers to the signal under treatment as a percentage of the control signal.

In the assay with U-251 [1], `CCCC(=O)OCOP(=O)(OCC)OCC` [(DIETHOXYPHOSPHORYLOXY)METHYL BUTYRATE] showed an IC50 of 89 µM. In addition, the outcome with U-251 [2] was inactive. The result with U-251 [3] and in the assay on U-251 [4] was Active.

For the compound `CCCC(=O)O` [BUTYRIC ACID], the result with U-251 [5], in the assay on U-251 [6] and with U-251 [9] was Active. The compound further had an IC50 in the assay on U-251 [1] of 932 µM. The residual activity in the assay with U-251 [7] was found to be 80%; in the assay with U-251 [10] it was 74%. In addition, in the assay with U-251 [8], the Activity is 126%.

`CC(C)(C)C(=O)OCOC(=O)CCC(=O)CN.Cl`: the Activity in the assay on U-251 [11] came to 4%; in the assay with U-251 [12] it was 9%; with U-251 [15], 17%; in the assay with U-251 [18], 15%; in the assay on U-251 [24] it was 9%; in the assay with U-251 [25], 2%. In addition, the Activity in the assay with U-251 [27] came out at 11%; in the assay with U-251 [29], 2%; with U-251 [30], 5%. In addition, the result in the assay with U-251 [13], in the assay on U-251 [4] and in the assay with U-251 [31] was inactive. In addition, the IC50 in the assay with U-251 [1] was 93 µM; in the assay on HL-60, 44 µM; in assay [17], 61 µM; in the assay on MCF7, 64 µM. Further, the “fold change (FC)” value amounted to 3 in the assay with U-251 [14] and 2 with U-251 [23]. Besides, the values for the residual activity in the assay with U-251 [7] and in the assay with U-251 [10] were 101% and 54%, respectively. The result with U-251 [16], in the assay on U-251 [19], in the assay with U-251 [20] and in the assay on U-251 [21] was Active. The viability at 100 µM with U-251 [22] came out at 67%; in the assay with U-251 [26], 82%; in the assay with U-251 [28], 77%.

Take `CCCC(CCC)C(=O)OC(C)OC(=O)CCC(=O)CN` (stereo not given): the IC50 in the assay on U-251 [1] came to 1040 µM; in the assay on HL-60, 780 µM.
